Measurements from paper PMC7473865, “Repertoire-scale determination of class II MHC peptide binding via yeast display improves antigen prediction” (Nature Communications, 2020).
Ends that are not written are not given here. Peptide text beside a SMILES is read from it.

target: T1, recombinant HLA-DR402 (HLA-DRA1*01:01, HLA-DRB1*04:02) (Homo sapiens, UniProt P01903+P01911, A100E/A169T/F76Y/K127E/L162R/M171V/N62H/P40V/Q125Y/Q99D/R42H/S133A/S149N/S66Y/V209L/W38E); test: biochemical; type: binding; conditions: not given
T1 construct: poly-histidine (C); made in house; host or cells: High Five (Hi5) insect cells, baculovirus (pAcGP67a)

Row | Molecule | IC50 [nM]
1 | AAVTEEKSHLGWEEG | 58.3
2 | AAVTERPINLGWEEG | 51.3
3 | AAGRSHRTHEGWEEG | 10
4 | AAPRRHANHLGWEEG | 130
5 | AAEHVWPSLVGWEEG | 25.6
6 | AALWRHPGHVGWEEG | 74.9
7 | AQKIVEWDSRKSKYG | 62
8 | AAVTNWGCEVGWEEG | 136

same assay, conditions: HLA-DR402; estimated from two-point fluorescence polarization competition; Fig5F; read-out: Estimated IC50

Row | Molecule | IC50 [nM]
9 | CC[C@H](C)[C@H](NC(=O)[C@H](C)NC(=O)[C@@H](NC(=O)[C@H](C)NC(=O)[C@H](CCCNC(=N)N)NC(=O)[C@H](CCCNC(=N)N)NC(=O)CNC(=O)[C@@H](NC(=O)[C@H](CCSC)NC(=O)[C@@H](NC(=O)[C@H](Cc1ccccc1)NC(=O)[C@H](CCC(=O)O)NC(=O)[C@H](CCC(=O)O)NC(=O)[C@@H](N)Cc1ccc(O)cc1)[C@@H](C)O)C(C)C)[C@@H](C)O)C(=O)N[C@@H](CC(C)C)C(=O)O | 4570
10 | CC[C@H](C)[C@H](NC(=O)[C@H](CCC(=O)O)NC(=O)[C@@H](N)[C@@H](C)O)C(=O)N[C@H](C(=O)N[C@@H](CCCNC(=N)N)C(=O)N[C@@H](CCSC)C(=O)N[C@@H](CCSC)C(=O)N[C@@H](CCC(=O)O)C(=O)N[C@@H](CO)C(=O)N[C@@H](C)C(=O)N[C@@H](CCCNC(=N)N)C(=O)N1CCC[C@H]1C(=O)N[C@@H](CCC(=O)O)C(=O)N[C@@H](CC(=O)O)C(=O)N[C@H](C(=O)O)C(C)C)[C@@H](C)CC | 83.1
11 | NRMVLASTTAKAMEQ | < 10
12 | AALDAHRDHMAWEEG | < 10
13 | CC[C@H](C)[C@H](NC(=O)CNC(=O)[C@H](CCCNC(=N)N)NC(=O)[C@H](CCCCN)NC(=O)[C@@H](NC(=O)[C@H](CCSC)NC(=O)[C@H](CCCNC(=N)N)NC(=O)[C@@H](NC(=O)[C@H](CC(C)C)NC(=O)[C@H](CCC(=O)O)NC(=O)[C@H](CCSC)NC(=O)[C@@H](NC(=O)[C@H](CCSC)NC(=O)[C@@H](N)[C@@H](C)O)C(C)C)C(C)C)[C@@H](C)CC)C(=O)N[C@@H](CC(N)=O)C(=O)O [TMVMELVRMIKRGIN] | 870
14 | AALTGKLGHRGWEEG | < 10

same assay, conditions: read-out: IC50

Row | Molecule | IC50 [nM]
15 | NRMVLASTTAKAMEQ | < 10
16 | AALDAHRDHMAWEEG | < 10
17 | AALTGKLGHRGWEEG | < 10

target: T2, recombinant HLA-DR401 (HLA-DRA1*01:01, HLA-DRB1*04:01) (Homo sapiens, UniProt P01903+P01911, A100K/A169T/F76Y/I96L/K127E/L162R/M171V/N62H/P40V/Q125Y/R42H/S133A/S149N/S66Y/V115G/V209L/W38E); test: biochemical; type: binding; conditions: not given
T2 construct: poly-histidine (C); made in house; host or cells: High Five (Hi5) insect cells, baculovirus (pAcGP67a)

Row | Molecule | IC50 [nM]
18 | CC(C)C[C@H](NC(=O)[C@H](C)NC(=O)[C@H](C)N)C(=O)N[C@H](C(=O)N[C@@H](CC(=O)O)C(=O)N[C@@H](CC(=O)O)C(=O)N1CCC[C@H]1C(=O)N[C@H](C(=O)N[C@@H](CS)C(=O)N[C@@H](CCCNC(=N)N)C(=O)N[C@@H](CS)C(=O)N[C@@H](Cc1c[nH]c2ccccc12)C(=O)N[C@@H](CCC(=O)O)C(=O)N[C@@H](CCC(=O)O)C(=O)NCC(=O)O)[C@@H](C)O)C(C)C (H-AALVDDPTCRCWEEG-OH) | 29.3
19 | AAWDPDKTVYGWEEG | 43.9
20 | AAVADDFSCRGWEEG | 47
21 | CC(C)C[C@H](NC(=O)[C@H](C)NC(=O)[C@H](C)N)C(=O)N[C@@H](CCCNC(=N)N)C(=O)N[C@@H](CCC(=O)O)C(=O)N[C@@H](CCC(=O)O)C(=O)N[C@@H](Cc1c[nH]cn1)C(=O)N[C@H](C(=O)N[C@@H](CS)C(=O)N[C@@H](CCCCN)C(=O)N[C@@H](CS)C(=O)N[C@@H](Cc1c[nH]c2ccccc12)C(=O)N[C@@H](CCC(=O)O)C(=O)N[C@@H](CCC(=O)O)C(=O)NCC(=O)O)[C@@H](C)O (H-AALREEHTCKCWEEG-OH) | 36.9
22 | CC(C)C[C@H](NC(=O)[C@H](C)NC(=O)[C@H](C)N)C(=O)N[C@@H](CC(N)=O)C(=O)N[C@H](C(=O)N[C@@H](CCC(=O)O)C(=O)N[C@@H](CCCNC(=N)N)C(=O)N[C@H](C(=O)N[C@@H](CS)C(=O)N[C@@H](Cc1c[nH]cn1)C(=O)N[C@@H](CS)C(=O)N[C@@H](Cc1c[nH]c2ccccc12)C(=O)N[C@@H](CCC(=O)O)C(=O)N[C@@H](CCC(=O)O)C(=O)NCC(=O)O)[C@@H](C)O)C(C)C (H-AALNVERTCHCWEEG-OH) | 33.4
23 | AAWDPERTCRAWEEG | 31.8
24 | AAGVIDPTMLGWEEG | 29.3
25 | AAWVVEHSEVGWEEG | 19.4
26 | AAERKMSVLSAWEEG | 817
27 | AAWESSTDLVGWEEG | 11.9
28 | AAWERENDMLGWEEG | 15.2

same assay, conditions: HLA-DR401; fluorescence polarization competition; Fig3B; read-out: Measured IC50

Row | Molecule | IC50 [nM]
29 | CC(C)C[C@H](N)C(=O)N[C@@H](Cc1ccccc1)C(=O)N[C@@H](CCC(=O)O)C(=O)N[C@@H](CCCCN)C(=O)N[C@@H](Cc1ccccc1)C(=O)N[C@@H](Cc1ccccc1)C(=O)N1CCC[C@H]1C(=O)N[C@@H](CO)C(=O)N[C@@H](CO)C(=O)N[C@@H](CO)C(=O)N[C@@H](Cc1ccc(O)cc1)C(=O)N[C@@H](CCCNC(=N)N)C(=O)N[C@@H](CCCNC(=N)N)C(=O)N1CCC[C@H]1C(=O)N[C@H](C(=O)O)C(C)C | > 50000
30 | VSSFQDILLRMSKMQ | > 50000

same assay, conditions: SuppFig6C; fluorescence polarization competition, HLA-DR401; read-out: Measured IC50

Row | Molecule | IC50 [nM]
31 | AGGFKGEQGPKGYNG | 134
32 | AAGFKGEQGPKGYPG | 115

same assay, conditions: estimated from two-point fluorescence polarization competition assay binding plots, HLA-DR401, N = 3 technical replicates per condition; read-out: IC50 (estimated)

Row | Molecule | IC50 [nM]
33 | AALGLDLRAYVWEEG | 7000
34 | AARYATSKSKGWEEG | 9520
35 | AAVNDQLTVNSWEEG | 4500
36 | AAFLGEWSLLSWEEG | < 10
37 | AAWVRVVPMRAWEEG | < 10
38 | AAYSVEPCYRMWEEG | 37
39 | CC(C)C[C@H](NC(=O)CNC(=O)[C@H](CCCNC(=N)N)NC(=O)[C@H](CCC(=O)O)NC(=O)[C@H](CC(C)C)NC(=O)[C@@H](NC(=O)[C@H](Cc1c[nH]c2ccccc12)NC(=O)[C@H](C)NC(=O)[C@H](C)N)C(C)C)C(=O)N[C@@H](CS)C(=O)N[C@@H](CS)C(=O)N[C@@H](Cc1c[nH]c2ccccc12)C(=O)N[C@@H](CCC(=O)O)C(=O)N[C@@H](CCC(=O)O)C(=O)NCC(=O)O (H-AAWVLERGLCCWEEG-OH) | 34
40 | AASFLSDSVMGWEEG | < 10

same assay, conditions: fluorescence polarization competition; […]; competitor 20 µM to 1.28 nM in five-fold dilutions; n = 3 replicates; read-out: Measured IC50

Row | Molecule | IC50 [nM]
41 | YWKQWLSLRNPILVF | 2510

same assay, conditions: fluorescence polarization peptide competition, HLA-DR401; sheet Fig7; read-out: Measured IC50

Row | Molecule | IC50 [nM]
42 | CC(C)C[C@H](NC(=O)[C@H](CCC(=O)O)NC(=O)[C@H](CC(N)=O)NC(=O)[C@H](CC(C)C)NC(=O)[C@H](CCC(N)=O)NC(=O)[C@@H](NC(=O)[C@H](CO)NC(=O)[C@H](CO)NC(=O)[C@H](CS)NC(=O)[C@H](CO)NC(=O)[C@H](CC(C)C)NC(=O)[C@H](CCCNC(=N)N)NC(=O)[C@H](Cc1ccccc1)NC(=O)[C@H](CC(C)C)NC(=O)[C@H](CCC(N)=O)NC(=O)[C@@H]1CCCN1C(=O)[C@H](CC(C)C)NC(=O)[C@H](CC(=O)O)NC(=O)[C@H](CS)NC(=O)[C@@H](N)Cc1ccc(O)cc1)[C@@H](C)O)C(=O)O (H-YCDLPQLFRLSCSSTQLNEL-OH) | 39.3
43 | RKDLIVMLMDTDVNKQDKQK | 3170
44 | MKRRPVWTDINPKAVTNDEL | 21
45 | AAGFPGEQGPKGEPG | > 50000
46 | YVGDMLAWLHQSTASEKEHL | 406
47 | EVKYCTFSKDRSKPIPGMTL | > 50000
48 | ASDSSYRNECPMAEKEDTQM | 47.4
49 | FVGNIAEDLCLDITKLSARG | 86
50 | CC[C@H](C)[C@H](NC(=O)[C@H](CCCCN)NC(=O)[C@H](CO)NC(=O)[C@@H](NC(=O)CNC(=O)[C@H](CC(N)=O)NC(=O)[C@@H](NC(=O)[C@H](CCCNC(=N)N)NC(=O)[C@@H](NC(=O)[C@H](Cc1ccc(O)cc1)NC(=O)[C@H](CC(C)C)NC(=O)[C@H](Cc1ccccc1)NC(=O)[C@@H](N)CCSC)C(C)C)[C@@H](C)O)[C@@H](C)O)C(=O)N[C@@H](CCCCN)C(=O)N[C@@H](CCSC)C(=O)N[C@@H](CCCCN)C(=O)N[C@@H](Cc1c[nH]c2ccccc12)C(=O)NCC(=O)N[C@@H](CCSC)C(=O)N[C@@H](CCC(=O)O)C(=O)O | 6100
51 | PIPVIFHRIATELSKTNDIN | 42.1
52 | VYGWATLVSERSNNGMQRIL | 94
53 | YSIEVLLVLDDSVVRFHGKE | > 50000

same assay, conditions: read-out: Measured IC50

Row | Molecule | IC50 [nM]
54 | AAGFPGEQGPKGEPG | > 50000
55 | CSCC[C@H](NC(=O)[C@H](Cc1ccc(O)cc1)NC(=O)CNC(=O)[C@@H](N)CCCCN)C(=O)N[C@@H](Cc1ccccc1)C(=O)N[C@@H](CCC(=O)O)C(=O)N[C@@H](CO)C(=O)N[C@@H](CCCCN)C(=O)N[C@@H](CO)C(=O)N[C@@H](CCSC)C(=O)N[C@@H](CCCCN)C(=O)N[C@@H](CC(C)C)C(=O)N[C@@H](CCCNC(=N)N)C(=O)N[C@H](C(=O)N[C@@H](CCC(N)=O)C(=O)O)[C@@H](C)O | 38700
56 | CSCC[C@H](NC(=O)[C@H](CCCNC(=N)N)NC(=O)[C@@H](N)CO)C(=O)N[C@@H](CCC(N)=O)C(=O)N[C@@H](Cc1ccccc1)C(=O)N[C@@H](CO)C(=O)N[C@@H](CO)C(=O)N[C@@H](Cc1ccccc1)C(=O)N[C@H](C(=O)N[C@H](C(=O)N[C@@H](CC(N)=O)C(=O)N[C@H](C(=O)N[C@@H](CCCNC(=N)N)C(=O)NCC(=O)N[C@@H](CO)C(=O)O)C(C)C)C(C)C)[C@@H](C)O | 3380
57 | CC(C)C[C@H](N)C(=O)N[C@@H](Cc1ccccc1)C(=O)N[C@@H](CCC(=O)O)C(=O)N[C@@H](CCCCN)C(=O)N[C@@H](Cc1ccccc1)C(=O)N[C@@H](Cc1ccccc1)C(=O)N1CCC[C@H]1C(=O)N[C@@H](CO)C(=O)N[C@@H](CO)C(=O)N[C@@H](CO)C(=O)N[C@@H](Cc1ccc(O)cc1)C(=O)N[C@@H](CCCNC(=N)N)C(=O)N[C@@H](CCCNC(=N)N)C(=O)N1CCC[C@H]1C(=O)N[C@H](C(=O)O)C(C)C | > 50000
58 | VSSFQDILLRMSKMQ | > 50000
59 | EVKYCTFSKDRSKPIPGMTL | > 50000
60 | AAGFKGEQGPKGEPG | 2910
61 | AAFFGWEWGPDGEPG | 5670
62 | AIGFKGEQGPKGGVG | 23300
63 | YSIEVLLVLDDSVVRFHGKE | > 50000
